From ChEMBL document CHEMBL1142345, “Synthesis and biological evaluation of alpha- and beta-6-amido derivatives of 17-cyclopropylmethyl-3, 14beta-dihydroxy-4, 5alpha-epoxymorphinan: potential alcohol-cessation agents” (J Med Chem, 2008)
Activity calls are given as the source filed them. The calls are words filed in the database; no cut-off is given here.

Assays:
[1] = molecular target: T1, Kappa-type opioid receptor (Homo sapiens, UniProt P41145); test: Displacement of [3H]U69593 from human kappa opioid receptor expressed in CHO cells; type: cell-based
T1 sequence (P41145 whole entry): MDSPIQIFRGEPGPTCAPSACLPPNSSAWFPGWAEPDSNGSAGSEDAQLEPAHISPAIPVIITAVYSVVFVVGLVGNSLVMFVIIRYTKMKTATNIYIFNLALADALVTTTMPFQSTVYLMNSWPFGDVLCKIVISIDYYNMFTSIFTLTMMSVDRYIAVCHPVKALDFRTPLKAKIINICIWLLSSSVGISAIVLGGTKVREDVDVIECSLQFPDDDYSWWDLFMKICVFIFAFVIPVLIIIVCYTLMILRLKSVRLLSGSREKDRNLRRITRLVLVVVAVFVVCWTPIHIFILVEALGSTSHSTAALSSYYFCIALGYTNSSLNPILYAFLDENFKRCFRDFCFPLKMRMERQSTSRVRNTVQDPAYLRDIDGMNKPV

Homo sapiens [2] = species on record: Homo sapiens; test: Selectivity ratio of Ki for human mu opioid receptor over Ki for human kappa opioid receptor
Mu-type opioid receptor [3] = molecular target: T2, Mu-type opioid receptor (Homo sapiens, UniProt P35372); test: Displacement of [3H]DAMGO from human mu opioid receptor expressed in CHO cells; type: cell-based
T2 sequence (P35372 whole entry): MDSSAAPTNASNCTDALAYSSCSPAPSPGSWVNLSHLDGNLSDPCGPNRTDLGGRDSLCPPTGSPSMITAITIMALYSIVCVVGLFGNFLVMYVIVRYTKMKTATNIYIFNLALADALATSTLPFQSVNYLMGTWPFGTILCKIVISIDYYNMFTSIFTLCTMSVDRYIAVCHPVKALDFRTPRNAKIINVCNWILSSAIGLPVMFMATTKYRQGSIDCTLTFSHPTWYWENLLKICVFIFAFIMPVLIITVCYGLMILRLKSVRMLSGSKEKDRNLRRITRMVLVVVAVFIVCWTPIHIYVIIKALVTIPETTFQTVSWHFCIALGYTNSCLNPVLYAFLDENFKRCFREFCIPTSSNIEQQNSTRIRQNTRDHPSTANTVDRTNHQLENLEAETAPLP

Homo sapiens [4] = species on record: Homo sapiens; test: Selectivity ratio of Ki for human mu opioid receptor over Ki for human delta opioid receptor
[5] = molecular target: T3, Delta-type opioid receptor (Homo sapiens, UniProt P41143); test: biochemical
T3 sequence (P41143 whole entry): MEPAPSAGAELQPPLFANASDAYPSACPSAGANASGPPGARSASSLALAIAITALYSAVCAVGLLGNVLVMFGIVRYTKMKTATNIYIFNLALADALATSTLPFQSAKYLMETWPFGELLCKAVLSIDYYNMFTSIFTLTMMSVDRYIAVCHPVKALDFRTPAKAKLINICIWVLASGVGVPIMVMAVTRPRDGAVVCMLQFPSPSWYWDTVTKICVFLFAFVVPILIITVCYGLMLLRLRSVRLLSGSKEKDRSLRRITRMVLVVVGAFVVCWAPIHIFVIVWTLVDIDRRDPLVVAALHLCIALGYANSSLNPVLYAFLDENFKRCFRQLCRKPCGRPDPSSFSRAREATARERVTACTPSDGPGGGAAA
Description: Displacement of [3H]DPDPE from human delta opioid receptor expressed in CHO cells

[6] = Metabolic stability assessed as half life in mouse liver microsomes at 40 uM; type: ADME, Microsome
CYP2B6 = molecular target: T4, CYP2B6 (Homo sapiens, UniProt P20813); test: Inhibition of CYP2B6 at 10 uM; type: ADME
T4 sequence (P20813 whole entry): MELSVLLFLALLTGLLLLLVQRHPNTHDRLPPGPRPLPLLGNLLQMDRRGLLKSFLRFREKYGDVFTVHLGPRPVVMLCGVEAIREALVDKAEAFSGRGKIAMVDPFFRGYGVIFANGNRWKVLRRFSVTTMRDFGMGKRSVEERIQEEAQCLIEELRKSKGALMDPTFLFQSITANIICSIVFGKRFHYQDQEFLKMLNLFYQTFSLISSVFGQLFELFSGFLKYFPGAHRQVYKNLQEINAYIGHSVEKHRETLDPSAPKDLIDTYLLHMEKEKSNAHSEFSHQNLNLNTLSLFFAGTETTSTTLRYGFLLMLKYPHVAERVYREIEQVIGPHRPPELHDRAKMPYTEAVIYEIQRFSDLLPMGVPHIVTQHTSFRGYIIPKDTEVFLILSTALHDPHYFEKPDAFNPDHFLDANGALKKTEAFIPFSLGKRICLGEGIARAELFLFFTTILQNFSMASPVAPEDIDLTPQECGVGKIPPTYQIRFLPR

CYP3A4 = CYP3A4 (Homo sapiens, UniProt P08684); test: Inhibition of CYP3A4 at 10 uM; type: ADME
Sequence of CYP3A4 (P08684 whole entry): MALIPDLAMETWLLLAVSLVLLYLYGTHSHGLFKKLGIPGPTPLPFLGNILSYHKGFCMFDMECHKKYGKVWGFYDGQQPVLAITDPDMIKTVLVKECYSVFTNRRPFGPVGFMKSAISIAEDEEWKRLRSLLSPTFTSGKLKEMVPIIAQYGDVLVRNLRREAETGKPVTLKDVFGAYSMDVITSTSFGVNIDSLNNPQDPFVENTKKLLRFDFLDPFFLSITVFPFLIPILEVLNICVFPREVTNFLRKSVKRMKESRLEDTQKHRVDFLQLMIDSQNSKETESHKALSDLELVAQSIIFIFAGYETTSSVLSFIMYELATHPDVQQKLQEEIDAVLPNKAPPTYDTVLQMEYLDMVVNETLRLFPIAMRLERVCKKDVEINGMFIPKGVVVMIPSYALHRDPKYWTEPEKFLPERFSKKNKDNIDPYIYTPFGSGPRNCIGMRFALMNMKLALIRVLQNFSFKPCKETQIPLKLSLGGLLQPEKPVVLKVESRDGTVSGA

CYP2C9 = CYP2C9 (Homo sapiens, UniProt P11712); test: Inhibition of CYP2C9 at 10 uM; type: ADME
Sequence of CYP2C9 (P11712 whole entry): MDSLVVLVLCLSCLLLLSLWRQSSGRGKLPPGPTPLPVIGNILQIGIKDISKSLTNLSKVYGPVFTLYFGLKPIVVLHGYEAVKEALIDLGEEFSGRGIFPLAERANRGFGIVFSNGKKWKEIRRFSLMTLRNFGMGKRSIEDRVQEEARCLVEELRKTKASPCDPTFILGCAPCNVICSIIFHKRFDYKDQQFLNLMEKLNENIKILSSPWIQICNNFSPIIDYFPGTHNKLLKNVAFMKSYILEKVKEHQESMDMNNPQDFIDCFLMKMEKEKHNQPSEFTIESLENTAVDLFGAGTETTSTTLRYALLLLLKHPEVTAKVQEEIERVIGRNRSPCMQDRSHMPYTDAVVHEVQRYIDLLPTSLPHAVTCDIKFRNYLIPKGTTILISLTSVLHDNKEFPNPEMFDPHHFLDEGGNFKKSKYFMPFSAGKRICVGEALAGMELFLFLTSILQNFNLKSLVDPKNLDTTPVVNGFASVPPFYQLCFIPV

CYP2D6 = CYP2D6 (Homo sapiens, UniProt P10635); test: in vitro
Sequence of CYP2D6 (P10635 whole entry): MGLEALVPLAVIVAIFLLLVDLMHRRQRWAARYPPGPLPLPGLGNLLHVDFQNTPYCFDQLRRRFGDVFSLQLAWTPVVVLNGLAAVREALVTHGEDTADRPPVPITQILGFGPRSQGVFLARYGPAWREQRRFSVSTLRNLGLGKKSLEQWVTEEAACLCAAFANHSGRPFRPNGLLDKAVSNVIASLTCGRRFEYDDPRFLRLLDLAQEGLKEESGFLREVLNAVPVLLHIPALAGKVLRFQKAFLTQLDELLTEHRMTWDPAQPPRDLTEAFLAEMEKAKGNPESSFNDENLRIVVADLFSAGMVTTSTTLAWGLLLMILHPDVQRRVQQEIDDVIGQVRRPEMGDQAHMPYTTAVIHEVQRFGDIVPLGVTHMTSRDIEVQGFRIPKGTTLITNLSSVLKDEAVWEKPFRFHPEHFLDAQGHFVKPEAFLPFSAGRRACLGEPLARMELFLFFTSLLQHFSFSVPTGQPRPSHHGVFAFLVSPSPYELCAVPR
Description: Inhibition of CYP2D6 at 10 uM

CYP2C19 = CYP2C19 (Homo sapiens, UniProt P33261); test: Inhibition of CYP2C19 at 10 uM; type: ADME
Sequence of CYP2C19 (P33261 whole entry): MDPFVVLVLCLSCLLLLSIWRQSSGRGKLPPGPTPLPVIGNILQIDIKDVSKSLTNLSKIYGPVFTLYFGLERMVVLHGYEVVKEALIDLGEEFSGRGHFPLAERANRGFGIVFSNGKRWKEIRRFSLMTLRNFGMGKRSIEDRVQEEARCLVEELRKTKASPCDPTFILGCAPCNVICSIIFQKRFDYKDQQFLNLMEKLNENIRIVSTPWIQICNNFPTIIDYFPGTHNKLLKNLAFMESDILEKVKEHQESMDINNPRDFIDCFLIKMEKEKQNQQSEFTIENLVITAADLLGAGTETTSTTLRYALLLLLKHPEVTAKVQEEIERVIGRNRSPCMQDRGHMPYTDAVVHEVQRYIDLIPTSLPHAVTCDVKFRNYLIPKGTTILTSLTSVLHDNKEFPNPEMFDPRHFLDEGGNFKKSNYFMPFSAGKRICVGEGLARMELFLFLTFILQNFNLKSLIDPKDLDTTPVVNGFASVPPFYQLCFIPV

Rattus norvegicus [7] = species on record: Rattus norvegicus; test: Inhibition of self alcohol consumption in rat using operant techniques; type: functional
[8] = Metabolic stability assessed as half life in human liver S9 fraction at 40 uM; type: ADME, subcellular
[9] = molecular target: T1, Kappa-type opioid receptor; test: Agonist activity at human kappa opioid receptorR by [35S]GTPgammaS binding assay; type: functional
Mu-type opioid receptor [10] = molecular target: T2, Mu-type opioid receptor
Description: Activity at human mu opioid receptor by [35S]GTPgammaS binding assay

[11] = molecular target: T3, Delta-type opioid receptor; test: Agonist activity at human delta opioid receptorR by [35S]GTPgammaS binding assay; type: functional
Rattus norvegicus [12] = test: Inhibition of self alcohol consumption in rat at 2 mg/kg using operant techniques; type: functional
Rattus norvegicus [13] = test: Inhibition of self alcohol consumption in rat at 0.025 mg/kg using operant techniques; type: functional
Rattus norvegicus [14] = test: Inhibition of self alcohol consumption in rat at 1.5 mg/kg using operant techniques; type: functional
[15] = molecular target: T3, Delta-type opioid receptor; test: Activity at human delta opioid receptor by [35S]GTPgammaS binding assay; type: functional

SMILES	Ki [1] [nM]	Ratio Ki (Homo sapiens [2])	Ki (Mu-type opioid receptor [3]) [nM]	Ratio Ki (Homo sapiens [4])	Ki [5] [nM]	also measured
O=C(N[C@@H]1CC[C@@]2(O)[C@H]3Cc4ccc(O)c5c4[C@@]2(CCN3CC2CC2)[C@H]1O5)c1cccc(O)c1	0.06	0.5	0.13	21	2.73	–
O=C(N[C@@H]1CC[C@@]2(O)[C@H]3Cc4ccc(O)c5c4[C@@]2(CCN3CC2CC2)[C@H]1O5)c1ccccn1	0.39	1.3	0.31	180	56.3	–
O=C(N[C@@H]1CC[C@@]2(O)[C@H]3Cc4ccc(O)c5c4[C@@]2(CCN3CC2CC2)[C@H]1O5)c1ccccc1	0.16	–	0.18	–	–	–
COc1ccc(CC(=O)N[C@@H]2CC[C@@]3(O)[C@H]4Cc5ccc(O)c6c5[C@@]3(CCN4CC3CC3)[C@H]2O6)cc1	0.42	1.6	0.27	74	19.9	–
O=C(O)c1ccc(C(=O)N[C@@H]2CC[C@@]3(O)[C@H]4Cc5ccc(O)c6c5[C@@]3(CCN4CC3CC3)[C@H]2O6)cc1	151	14.9	10.1	7860	79.2	–
O=C(N[C@@H]1CC[C@@]2(O)[C@H]3Cc4ccc(O)c5c4[C@@]2(CCN3CC2CC2)[C@H]1O5)c1ccc(Cl)cc1	–	–	–	–	–	half-life at 40 µM [6]: 255 min; inhibition at 10 µM (CYP2B6): 7%; inhibition at 10 µM (CYP3A4): 30.8%; inhibition at 10 µM (CYP2C9): 28.1%; inhibition at 10 µM (CYP2D6): 4.7%; inhibition at 10 µM (CYP2C19): 39.1%; ED50 (Rattus norvegicus [7]): 0.5 mg/kg
O=C(N[C@H]1CC[C@@]2(O)[C@H]3Cc4ccc(O)c5c4[C@@]2(CCN3CC2CC2)[C@H]1O5)c1ccccc1	0.78	–	0.21	–	–	–
C=C1CC[C@@]2(O)[C@H]3Cc4ccc(O)c5c4[C@@]2(CCN3CC2CC2)[C@H]1O5	–	–	–	–	–	half-life at 40 µM [6]: 20 min; inhibition at 10 µM (CYP2C9): 35.5%; ED50 (Rattus norvegicus [7]): 0.04 mg/kg; half-life at 40 µM [8]: 20 min
COc1cccc(C(=O)N[C@@H]2CC[C@@]3(O)[C@H]4Cc5ccc(O)c6c5[C@@]3(CCN4CC3CC3)[C@H]2O6)c1	0.24	2	0.12	32	3.8	Activity [9]: Active; inhibition at 10 µM (CYP2B6): 49.3%; inhibition at 10 µM (CYP3A4): 44.9%; Ke (Mu-type opioid receptor [10]): 0.17 nM; inhibition at 10 µM (CYP2D6): 31.2%; Activity [11]: Active; inhibition at 10 µM (CYP2C19): 47.1%; inhibition in vivo at 2 mg/kg (Rattus norvegicus [12]): 75%
Nc1ccc(C(=O)N[C@@H]2CC[C@@]3(O)[C@H]4Cc5ccc(O)c6c5[C@@]3(CCN4CC3CC3)[C@H]2O6)cc1	0.4	0.93	0.43	85	36.5	–
O=C(/C=C/Cc1ccccc1)N[C@@H]1CC[C@@]2(O)[C@H]3Cc4ccc(O)c5c4[C@@]2(CCN3CC2CC2)[C@H]1O5	0.91	20	0.06	100	8.22	–
COc1cccc(C(=O)N[C@H]2CC[C@@]3(O)[C@H]4Cc5ccc(O)c6c5[C@@]3(CCN4CC3CC3)[C@H]2O6)c1	0.72	4.5	0.16	36	5.82	half-life at 40 µM [6]: 49 min
O=C(CCc1ccccc1)N[C@@H]1CC[C@@]2(O)[C@H]3Cc4ccc(O)c5c4[C@@]2(CCN3CC2CC2)[C@H]1O5	0.09	0.8	0.12	100	12.2	Ke (Mu-type opioid receptor [10]): 0.15 nM
O=C(C[C@@H]1O[C@H](CO)[C@@H](O)[C@H](O)[C@H]1O)N[C@@H]1CC[C@@]2(O)[C@H]3Cc4ccc(O)c5c4[C@@]2(CCN3CC2CC2)[C@H]1O5	4.5	7	0.64	150	99	Ke (Mu-type opioid receptor [10]): 0.37 nM
O=C(Cc1cccs1)N[C@@H]1CC[C@@]2(O)[C@H]3Cc4ccc(O)c5c4[C@@]2(CCN3CC2CC2)[C@H]1O5	1.2	2.8	0.43	75	32.4	Ke (Mu-type opioid receptor [10]): 0.41 nM
O=C(C[C@@H]1O[C@H](CO)[C@@H](O)[C@H](O)[C@H]1O)N[C@H]1CC[C@@]2(O)[C@H]3Cc4ccc(O)c5c4[C@@]2(CCN3CC2CC2)[C@H]1O5	2.03	3	0.67	55	36.9	–
O=C(N[C@@H]1CC[C@@]2(O)[C@H]3Cc4ccc(O)c5c4[C@@]2(CCN3CC2CC2)[C@H]1O5)c1cccc([N+](=O)[O-])c1	0.28	–	0.19	–	–	–
COc1cccc(CC(=O)N[C@@H]2CC[C@@]3(O)[C@H]4Cc5ccc(O)c6c5[C@@]3(CCN4CC3CC3)[C@H]2O6)c1	0.45	3.5	0.13	120	15.8	–
O=C(Cc1ccccc1)N[C@@H]1CC[C@@]2(O)[C@H]3Cc4ccc(O)c5c4[C@@]2(CCN3CC2CC2)[C@H]1O5	0.43	2.7	0.16	180	28	–
COC(=O)c1ccc(C(=O)N[C@@H]2CC[C@@]3(O)[C@H]4Cc5ccc(O)c6c5[C@@]3(CCN4CC3CC3)[C@H]2O6)cc1	0.73	3.5	0.21	130	27.2	–
CC(C)(C)OC(=O)Nc1ccc(C(=O)N[C@@H]2CC[C@@]3(O)[C@H]4Cc5ccc(O)c6c5[C@@]3(CCN4CC3CC3)[C@H]2O6)cc1	0.79	0.86	0.92	28	25.3	–
O=C(N[C@@H]1CC[C@@]2(O)[C@H]3Cc4ccc(O)c5c4[C@@]2(CCN3CC2CC2)[C@H]1O5)c1ccc(Cl)c(Cl)c1	–	–	–	–	–	inhibition at 10 µM (CYP3A4): 35.5%; inhibition in vivo at 0.025 mg/kg (Rattus norvegicus [13]): 77%; inhibition at 10 µM (CYP2C9): 32.3%; inhibition at 10 µM (CYP2C19): 48.3%; half-life at 40 µM [8]: 346 min
COc1cc(OC)cc(C(=O)N[C@H]2CC[C@@]3(O)[C@H]4Cc5ccc(O)c6c5[C@@]3(CCN4CC3CC3)[C@H]2O6)c1	2.41	13	0.19	36	6.83	–
O=C(Cc1cccs1)N[C@H]1CC[C@@]2(O)[C@H]3Cc4ccc(O)c5c4[C@@]2(CCN3CC2CC2)[C@H]1O5	2.74	7.2	0.38	5.5	2.07	–
CN(C)c1cccc(C(=O)NC2CC[C@@]3(O)[C@H]4Cc5ccc(O)c6c5[C@@]3(CCN4CC3CC3)[C@H]2O6)c1 (some centres undefined)	1.7	1.42	1.2	7.08	8.5	Activity [9]: Active; inhibition at 10 µM (CYP3A4): 39.9%; Ke (Mu-type opioid receptor [10]): 0.14 nM; inhibition at 10 µM (CYP2C9): 23.1%; inhibition at 10 µM (CYP2D6): 23.5%; Activity [11]: Active; inhibition at 10 µM (CYP2C19): 70%; inhibition in vivo at 1.5 mg/kg (Rattus norvegicus [14]): 17%
O=C(C[C@@H]1O[C@H](COCc2ccccc2)[C@@H](OCc2ccccc2)[C@H](OCc2ccccc2)[C@H]1OCc1ccccc1)N[C@H]1CC[C@@]2(O)[C@H]3Cc4ccc(O)c5c4[C@@]2(CCN3CC2CC2)[C@H]1O5	0.51	0.34	1.49	16.5	24.5	Ke (Mu-type opioid receptor [10]): 0.16 nM; Ke [15]: 10.3 nM
COc1cc(OC)cc(C(=O)N[C@@H]2CC[C@@]3(O)[C@H]4Cc5ccc(O)c6c5[C@@]3(CCN4CC3CC3)[C@H]2O6)c1	0.29	1.1	0.26	68	17.6	–
